Data: PMC11510433, “Exploration of the Solubility Hyperspace of Selected Active Pharmaceutical Ingredients in Choline- and Betaine-Based Deep Eutectic Solvents: Machine Learning Modeling and Experimental Validation” (Molecules, 2024)
Read-outs that look alike come from different tables or passages of the source.

Tests used:
[1] = set-up: method as in ref 2017-Zhong-10.1021acs.jced.7b00065; details: solvent 1-propanol, ref 2017-Zhong-10.1021acs.jced.7b00065, cited from earlier work
[2] = A:D 1:1, x*DES 1.0 (water 0.00), T 25.0 °C, ref 2024-Cysewski-10.3390molecules29102296, cited from earlier work
[3] = shake-flask solubility of sulfonamides in choline chloride- and betaine-based deep eutectic solvents (new measurements); type: physicochemical
Method: The solubility measurements were preceded by the determination of the calibration curves for the studied sulfonamides. Stock solutions of these compounds were prepared in methanol and subsequently diluted. The obtained series of solutions with decreasing concentrations were then measured spectrophotometrically using an A360 spectrophotometer from AOE Instruments (Shanghai, China) in the wavelength range of 200 nm to 500 nm. Their characteristic wavelengths were determined, and the corresponding absorbance values were plotted against the concentrations of the solutions. Three separate curves were prepared, and the obtained values were averaged. The calibration curves were validated in terms of their linearity, expressed by the determination coefficient R^2, as well as the limits of detection (LOD) and quantification (LOQ).
For determining the solubility of the studied sulfonamides in different eutectic compositions, a standard shake-flask procedure was applied.
The first step in this procedure involved the preparation of the deep eutectic solvents, which was performed by combining a hydrogen bond donor with a hydrogen bond acceptor. The HBA:HBD molar ratio was set to 1:2. […] The eutectics were prepared by weighing appropriate amounts of the two counterparts in glass vessels and heating them until a homogenous solution was obtained.
The samples of sulfonamides in DESs were prepared by adding an excess amount of the solute to the test tube, followed by an addition of the specific eutectic. The saturated solutions obtained in this manner were placed in an Orbital Shaker Incubator ES-20/60 from Biosan (Riga, Latvia) and heated at 25 °C, 30 °C, 35 °C, or 40 °C for 24 h with stirring at 60 rev/min. Before the measurements, the samples were filtered using a 0.22 µm pore-size PTFE syringe filter. The spectra of the filtered solutions were recorded after the dilution with methanol in the 200 nm–500 nm wavelength range with a 1 nm resolution. […] The absorbance values found at the characteristic wavelengths were used together with the linear regression equations to calculate the concentration of the considered solutes. Simultaneously, for the computation of the mole fraction solubility, the density of the samples was determined by weighing 1 mL of the sample on a RADWAG (Radom, Poland) AS 110 R2.PLUS analytical balance with 0.1 mg precision. Three separate samples were measured for each system, and the values were averaged.

[4] = set-up: method as in ref 2014-Delgado-10.1007s10953-014-0169-0; details: 1-Propanol + water, ref 2014-Delgado-10.1007s10953-014-0169-0, cited from earlier work
[5] = best-performing ChCl-TEG system, 1:2, 25 °C

SMILES: Cn1c(=O)c2c(ncn2C)n(C)c1=O [caffeine]
- log(x1)exp ([1]; T 14.86 °C): -2.932
- log(x1)exp ([1]; T 24.96 °C): -2.752
- log(x1)exp ([1]; T 34.94 °C): -2.550

SMILES: CC(C)Cc1ccc(C(C)C(=O)O)cc1 (stereo not shown) [ibuprofen]
- log(x1)exp ([2]; choline chloride + DEG): -0.616
- log(x1)exp ([2]; choline chloride + P2D): -0.793
- log(x1)exp ([2]; choline chloride + TEG): -0.580

SMILES: CCCN(CCC)S(=O)(=O)c1ccc(C(=O)O)cc1 [probenecid]
- Mole fraction solubility [3, 5]: 0.00124 mole fraction

SMILES: Cc1cc(C)nc(NS(=O)(=O)c2ccc(N)cc2)n1 [sulfamethazine]
- log(x1)exp ([4]; x2* 0.0322, x3* 0.97, T 20.00 °C): -4.226
- log(x1)exp ([4]; x2* 0.0322, x3* 0.97, T 25.00 °C): -4.133
- log(x1)exp ([4]; x2* 0.0322, x3* 0.97, T 30.00 °C): -4.044

SMILES: O=C(O)c1cc(/N=N/c2ccc(S(=O)(=O)Nc3ccccn3)cc2)ccc1O [sulfasalazine]
- Mole fraction solubility ([3]; DES BI-DEG, HBA:HBD 1:2, 25°C): 0.67(±0.09) mole fraction ∙10^4
- Mole fraction solubility ([3]; DES BI-DEG, HBA:HBD 1:2, 30°C): 0.70(±0.08) mole fraction ∙10^4
- Mole fraction solubility ([3]; DES BI-DEG, HBA:HBD 1:2, 35°C): 0.75(±0.06) mole fraction ∙10^4
- Mole fraction solubility ([3]; DES BI-DEG, HBA:HBD 1:2, 40°C): 0.79(±0.05) mole fraction ∙10^4
- Mole fraction solubility ([3]; DES BI-ETG, HBA:HBD 1:2, 25°C): 0.55(±0.07) mole fraction ∙10^4
- Mole fraction solubility ([3]; DES BI-ETG, HBA:HBD 1:2, 30°C): 0.58(±0.02) mole fraction ∙10^4
- Mole fraction solubility ([3]; DES BI-ETG, HBA:HBD 1:2, 35°C): 0.62(±0.06) mole fraction ∙10^4
- Mole fraction solubility ([3]; DES BI-ETG, HBA:HBD 1:2, 40°C): 0.67(±0.08) mole fraction ∙10^4
- Mole fraction solubility ([3]; DES BI-P2D, HBA:HBD 1:2, 25°C): 0.41(±0.06) mole fraction ∙10^4
- Mole fraction solubility ([3]; DES BI-P2D, HBA:HBD 1:2, 30°C): 0.46(±0.10) mole fraction ∙10^4
- Mole fraction solubility ([3]; DES BI-P2D, HBA:HBD 1:2, 35°C): 0.49(±0.08) mole fraction ∙10^4
- Mole fraction solubility ([3]; DES BI-P2D, HBA:HBD 1:2, 40°C): 0.52(±0.04) mole fraction ∙10^4
- Mole fraction solubility ([3]; DES BI-TEG, HBA:HBD 1:2, 25°C): 0.69(±0.04) mole fraction ∙10^4
- Mole fraction solubility ([3]; DES BI-TEG, HBA:HBD 1:2, 30°C): 0.72(±0.02) mole fraction ∙10^4
- Mole fraction solubility ([3]; DES BI-TEG, HBA:HBD 1:2, 35°C): 0.77(±0.09) mole fraction ∙10^4
- Mole fraction solubility ([3]; DES BI-TEG, HBA:HBD 1:2, 40°C): 0.81(±0.07) mole fraction ∙10^4
- Mole fraction solubility ([3]; DES ChCl-DEG, HBA:HBD 1:2, 25°C): 0.71(±0.09) mole fraction ∙10^4
- Mole fraction solubility ([3]; DES ChCl-DEG, HBA:HBD 1:2, 30°C): 0.75(±0.07) mole fraction ∙10^4
- Mole fraction solubility ([3]; DES ChCl-DEG, HBA:HBD 1:2, 35°C): 0.80(±0.14) mole fraction ∙10^4
- Mole fraction solubility ([3]; DES ChCl-DEG, HBA:HBD 1:2, 40°C): 0.83(±0.02) mole fraction ∙10^4
- Mole fraction solubility ([3]; DES ChCl-ETG, HBA:HBD 1:2, 25°C): 0.62(±0.09) mole fraction ∙10^4
- Mole fraction solubility ([3]; DES ChCl-ETG, HBA:HBD 1:2, 30°C): 0.65(±0.01) mole fraction ∙10^4
- Mole fraction solubility ([3]; DES ChCl-ETG, HBA:HBD 1:2, 35°C): 0.69(±0.06) mole fraction ∙10^4
- Mole fraction solubility ([3]; DES ChCl-ETG, HBA:HBD 1:2, 40°C): 0.72(±0.08) mole fraction ∙10^4
- Mole fraction solubility ([3]; DES ChCl-P2D, HBA:HBD 1:2, 25°C): 0.50(±0.08) mole fraction ∙10^4
- Mole fraction solubility ([3]; DES ChCl-P2D, HBA:HBD 1:2, 30°C): 0.53(±0.03) mole fraction ∙10^4
- Mole fraction solubility ([3]; DES ChCl-P2D, HBA:HBD 1:2, 35°C): 0.56(±0.07) mole fraction ∙10^4
- Mole fraction solubility ([3]; DES ChCl-P2D, HBA:HBD 1:2, 40°C): 0.59(±0.01) mole fraction ∙10^4
- Mole fraction solubility ([3]; DES ChCl-TEG, HBA:HBD 1:2, 25°C): 0.75(±0.05) mole fraction ∙10^4
- Mole fraction solubility ([3]; DES ChCl-TEG, HBA:HBD 1:2, 30°C): 0.78(±0.07) mole fraction ∙10^4
- Mole fraction solubility ([3]; DES ChCl-TEG, HBA:HBD 1:2, 35°C): 0.82(±0.01) mole fraction ∙10^4
- Mole fraction solubility ([3]; DES ChCl-TEG, HBA:HBD 1:2, 40°C): 0.86(±0.02) mole fraction ∙10^4
- Mole fraction solubility [3, 5]: 0.000075 mole fraction
